Results as given in ChEMBL document CHEMBL4007468, “Curcumolide reduces diabetic retinal vascular leukostasis and leakage partly via inhibition of the p38MAPK/NF-κ B signaling” (Bioorg Med Chem Lett, 2017).
Calls of active or inactive are those of the source. The calls are words filed in the database; no cut-off is given here.

Tests used:
[1] = tested on: Rattus norvegicus; assay: Downregulation of TNFalpha level in STZ-induced Wistar rat diabetic retinopathy model at 50 ug/eye administered intravitreally measured after 3 days by Western blot method; type: functional
[2] = tested on: Rattus norvegicus; assay: Inhibition of retinal vascular leakage in STZ-induced Wistar rat diabetic retinopathy model assessed as reduction in FITC-dextran leakage at 50 ug/eye administered intravitreally measured after 3 days by fluorescence microscopic method; type: functional
[3] = tested on: Rattus norvegicus; assay: Inhibition of retinal vascular leakage in STZ-induced Wistar rat diabetic retinopathy model assessed as Evans blue albumin level in retina at 50 ug/eye administered intravitreally measured after 3 days (reference value: 82.94 +/- 11.2 ug/g); type: functional
[4] = tested on: Rattus norvegicus; assay: Downregulation of ICAM-1 level in STZ-induced Wistar rat diabetic retinopathy model at 50 ug/eye administered intravitreally measured after 3 days by Western blot method; type: functional
[5] = tested on: Rattus norvegicus; assay: Inhibition of retinal leukostasis in STZ-induced Wistar rat diabetic retinopathy model assessed as adherent leukocyte count per retina at 50 ug/eye administered intravitreally measured after 3 days by FITC-ConA staining based fluorescence microscopic method (reference value: 52 +/- 10); type: functional
[6] = biological target: T1, Inhibitor of nuclear factor kappa-B kinase subunit beta (Homo sapiens) (UniProt O14920); assay: Inhibition of IKKbeta in HUVEC assessed as reduction in TNFalpha-stimulated IkBalpha phosphorylation at Ser-32 residue preincubated with cells followed by TNFalpha stimulation measured after 30 mins by Western blot method
T1 sequence (whole entry): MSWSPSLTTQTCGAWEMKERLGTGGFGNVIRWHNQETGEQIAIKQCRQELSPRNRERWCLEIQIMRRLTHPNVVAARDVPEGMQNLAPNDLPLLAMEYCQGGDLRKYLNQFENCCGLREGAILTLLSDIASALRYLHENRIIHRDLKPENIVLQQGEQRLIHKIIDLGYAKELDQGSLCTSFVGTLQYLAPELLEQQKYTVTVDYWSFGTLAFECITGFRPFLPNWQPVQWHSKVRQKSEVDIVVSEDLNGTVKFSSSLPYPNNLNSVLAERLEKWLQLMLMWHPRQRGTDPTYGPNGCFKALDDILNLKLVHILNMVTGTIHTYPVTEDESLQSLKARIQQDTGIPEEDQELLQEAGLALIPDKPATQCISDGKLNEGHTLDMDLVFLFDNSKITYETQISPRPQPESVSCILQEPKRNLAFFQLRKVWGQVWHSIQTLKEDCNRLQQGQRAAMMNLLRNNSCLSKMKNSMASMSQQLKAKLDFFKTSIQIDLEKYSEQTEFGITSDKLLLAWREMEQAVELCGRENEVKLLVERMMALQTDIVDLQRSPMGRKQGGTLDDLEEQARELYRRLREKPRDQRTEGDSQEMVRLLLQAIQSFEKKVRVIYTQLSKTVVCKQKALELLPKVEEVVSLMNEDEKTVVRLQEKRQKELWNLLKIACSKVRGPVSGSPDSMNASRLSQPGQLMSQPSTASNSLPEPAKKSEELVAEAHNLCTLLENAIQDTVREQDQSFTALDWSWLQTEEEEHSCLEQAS

[7] = biological target: c-Jun N-terminal kinase, JNK (Homo sapiens) (UniProt P45983+P53779+P45984); assay: Inhibition of TNFalpha-stimulated JNK phosphorylation in HUVEC up to 20 uM preincubated with cells followed by TNFalpha stimulation measured after 30 mins by Western blot method
[8] = biological target: Transcription factor p65 (Homo sapiens) (UniProt Q04206); assay: Inhibition of TNFalpha-stimulated NF-kB p65 nuclear translocation in HUVEC up to 20 uM preincubated with cells followed by TNFalpha stimulation measured after 30 mins by Western blot method
Chain of Transcription factor p65 (Homo sapiens) (Q04206 whole entry): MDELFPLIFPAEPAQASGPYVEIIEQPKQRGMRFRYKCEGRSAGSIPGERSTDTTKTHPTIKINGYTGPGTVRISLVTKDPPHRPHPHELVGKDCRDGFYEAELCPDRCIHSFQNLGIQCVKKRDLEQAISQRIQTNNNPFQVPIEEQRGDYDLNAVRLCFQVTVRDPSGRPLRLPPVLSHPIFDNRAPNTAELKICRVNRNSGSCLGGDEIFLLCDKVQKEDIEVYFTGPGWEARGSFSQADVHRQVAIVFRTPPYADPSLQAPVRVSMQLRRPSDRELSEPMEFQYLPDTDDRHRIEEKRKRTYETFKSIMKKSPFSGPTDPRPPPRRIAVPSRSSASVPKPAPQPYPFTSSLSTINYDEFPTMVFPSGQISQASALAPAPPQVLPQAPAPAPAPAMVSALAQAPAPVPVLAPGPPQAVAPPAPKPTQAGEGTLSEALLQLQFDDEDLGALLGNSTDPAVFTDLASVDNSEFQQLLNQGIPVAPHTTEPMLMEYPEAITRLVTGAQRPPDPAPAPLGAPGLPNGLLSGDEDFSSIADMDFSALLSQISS

[9] = species: Homo sapiens; assay: Inhibition of TNFalpha-stimulated NF-kB in HUVEC assessed as reduction in TNFalpha mRNA level up to 20 uM preincubated with cells followed by TNFalpha stimulation measured after 30 mins by RT-PCR method
[10] = biological target: MAP kinase p38 (Homo sapiens) (UniProt O15264+Q15759+Q16539+P53778); assay: Inhibition of TNFalpha-stimulated MAPK p38 phosphorylation in HUVEC preincubated with cells followed by TNFalpha stimulation measured after 30 mins by Western blot method
[11] = biological target: Transcription factor p65 (Homo sapiens) (UniProt Q04206); assay: Inhibition of TNFalpha-stimulated NF-kB p65 phosphorylation at Ser-276 residue in HUVEC up to 20 uM preincubated with cells followed by TNFalpha stimulation measured after 30 mins by Western blot method
[12] = tested on: Rattus norvegicus; assay: Toxicity in STZ-induced Wistar rat diabetic retinopathy model assessed as effect on retina thickness at 75 ug/eye administered intravitreally measured after 3 days by hematoxylin and eosin staining based assay; conditions: in vivo, topical_or_ocular, 72 h
[13] = species: Homo sapiens; assay: Inhibition of TNFalpha-stimulated NF-kB in HUVEC assessed as reduction in ICAM1 mRNA level up to 20 uM preincubated with cells followed by TNFalpha stimulation measured after 30 mins by RT-PCR method
[14] = tested on: Rattus norvegicus; assay: Toxicity in STZ-induced Wistar rat diabetic retinopathy model assessed as inflammatory cells accumulation in retina at 75 ug/eye administered intravitreally measured after 3 days by hematoxylin and eosin staining based assay; conditions: in vivo, topical_or_ocular, 72 h
[15] = biological target: Transcription factor p65 (Homo sapiens) (UniProt Q04206); assay: Inhibition of TNFalpha-stimulated NF-kB p65 phosphorylation at Ser-536 residue in HUVEC up to 20 uM preincubated with cells followed by TNFalpha stimulation measured after 30 mins by Western blot method
[16] = tested on: Rattus norvegicus; assay: Toxicity in STZ-induced Wistar rat diabetic retinopathy model assessed as inflammatory cells accumulation in vitreous at 75 ug/eye administered intravitreally measured after 3 days by hematoxylin and eosin staining based assay; conditions: in vivo, topical_or_ocular, 72 h
[17] = tested on: Rattus norvegicus; assay: Toxicity in STZ-induced Wistar rat diabetic retinopathy model assessed as TUNEL positive cells in retinal layers at 75 ug/eye administered intravitreally measured after 3 days by fluorescence microscopic method; conditions: in vivo, topical_or_ocular, 72 h
[18] = biological target: T1, Inhibitor of nuclear factor kappa-B kinase subunit beta (Homo sapiens); assay: Inhibition of TNFalpha-stimulated IKKbeta phosphorylation at Ser-177 residue in HUVEC preincubated with cells followed by TNFalpha stimulation measured after 30 mins by Western blot method
[19] = tested on: Rattus norvegicus; assay: Toxicity in STZ-induced Wistar rat diabetic retinopathy model assessed as inflammatory cells accumulation in choroid tissues at 75 ug/eye administered intravitreally measured after 3 days by hematoxylin and eosin staining based assay; conditions: in vivo, topical_or_ocular, 72 h
[20] = tested on: HUVEC; assay: Cytotoxicity against HUVEC assessed as reduction in cell viability up to 20 uM after 24 hrs by MTT assay; type: cell-based; conditions: human

Structure (SMILES) | Activity [1] | inhibition [2] | Activity [3] | Activity [4] | Activity [5] | inhibition [6] | inhibition [7] | inhibition [8] | inhibition [9] | inhibition [10] | inhibition [11] | Activity [12] | inhibition [13] | Activity [14] | inhibition [15] | Activity [16] | Activity [17] | inhibition [18] | Activity [19] | Activity [20]
CC1(C)O[C@@H]2C[C@H]3[C@@H]4CCC5=CC(=O)C=C[C@]5(C)[C@@]4(F)[C@@H](O)C[C@]3(C)[C@]2(C(=O)CO)O1 [TRIAMCINOLONE ACETONIDE] | Active | Active | 36.33 µg/g | Active | 19 |  |  |  |  |  |  |  |  |  |  |  |  |  |  | 
CC1=C[C@]2(C(C)(C)O)C[C@]3(OC2=O)[C@@H](C)CC[C@@H]13 | Active | Active | 43.53 µg/g | Active | 25 | Dose-dependent effect | inactive | Active | Active | Dose-dependent effect | Active | Non-Toxic | Active | Non-Toxic | Active | Non-Toxic | Non-Toxic | Dose-dependent effect | Non-Toxic | Non-Toxic
